According to US11608328B2, “Chemical probes to identify anti-mycobacterial MmpL3 inhibitors” (Creighton University, priority 2019, dated 2023):

Molecular target: MmpL3tb(G253E) (Mycobacterium tuberculosis, UniProt P9WJV5, G253E)
Format: binding

## C[C@@H]1[C@H]2C[C@@H](C[C@H]1NC(=O)c1cc3ccccc3[nH]1)C2(C)C [North 4]
  BLI binding to MmpL3tb(G253E) versus WT: unaltered by the G253E mutation

## Cc1cc(C)c2cc(C(=O)NC3CCCCCCC3)[nH]c2c1 [North 21]
  BLI binding to MmpL3tb(G253E) versus WT: no binding to MmpL3tb(G253E) was detected

## CC(C)=CCC/C(C)=C/CNCCNC1C2CC3CC(C2)CC1C3 (stereo not drawn) [SQ109]
  BLI binding to MmpL3tb(G253E) versus WT: no binding to MmpL3tb(G253E) was detected
